Holding throughout (type): biochemical
One experiment concerns the target T1, Cathepsin G (Homo sapiens, UniProt P08311).
T1 construct: purchased Elastin Products Company (EPC) SG-45
T1 sequence (P08311 21-255): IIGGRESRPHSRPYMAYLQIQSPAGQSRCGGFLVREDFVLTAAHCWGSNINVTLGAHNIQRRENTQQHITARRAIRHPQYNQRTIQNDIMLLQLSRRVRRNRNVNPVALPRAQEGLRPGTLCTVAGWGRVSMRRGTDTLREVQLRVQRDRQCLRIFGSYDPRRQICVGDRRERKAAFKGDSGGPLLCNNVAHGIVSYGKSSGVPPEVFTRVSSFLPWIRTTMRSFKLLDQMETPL
Kind of experiment: Cathepsin G assay (Suc-Ala-Ala-Pro-Phe-pNA, 410 nm). As to conditions: for inhibition at 100 µM / Cathepsin G % inhibition: 100 μM peptide (Tables VI, VIII); for inhibition at 200 µM / Cathepsin G Inhibition: 200 μM peptide (head of Table IX). The procedure: Reference: Elastin Products Company (EPC) technical data sheet, cathepsin G, No. SG-45.
Method: Spectrophotometric rate determination
A) Buffer; 0.1M Tris, pH 7.5 at 25° C.
B) Substrate; 60 mM Suc-Ala-Ala-Pro-Phe-pNA obtained from Sigma Chemical Company. Solution prepared by dissolving 50 mg substrate in 1.3 ml of 1-methyl-2-pyrrolidinone. Stored at 5° C.
C) Peptide Inhibitors; 200 μM HCl salt. Depending on peptide solubility, dissolved in buffer or DMSO and then buffer added for a final concentration of 10% DMSO.
D) Enzyme; Cathepsin G, EPC SG-45, lot 85117 used for all assays, 0.0077 mg protein per mg solid determined by supplier by Bradford method. Enzyme was dissolved in buffer at a concentration of approx. 5 mg/ml solid. Solution stored on ice, used within 2 hours.
Pipetted the following into semi-micro quartz cuvettes: 0.3 ml buffer, 0.15 ml peptide solution and 0.5 ml of substrate solution. Equilibrate for 5 min. at 25° C., then add 0.05 ml of enzyme solution and monitor the release of pNA spectrophotometrically at 410 nm for at least 3 minutes. The controls contain either 0.45 ml of buffer or 20% DMSO in buffer (for a final concentration of 10% DMSO).
The rate (O.D./min) is obtained as an average over 3 minutes. [formula]

A further experiment concerns the target Thrombin (Homo sapiens, UniProt P00734). The experiment is described as follows: Coagulation inhibition assay, thrombin (fibrinogen clotting end point). The note with it: 40 μM peptide. The method, then:
Inhibitory activity of subject peptides toward thrombin and Factor Xa were done in the following manner. Mix 100 μL Thrombin (3.125 units/ml, 1.125 μg/ml) in TAB with […] Peptide in TAB and incubate for 1 minute at 37° C. Add 50 μL Fibrinogen (2 mg/ml)and measure clotting end point (in seconds) in a Fibrometer (BBL) TAB=Thrombin Assay Buffer: 0.15M NaCl, 6.6 gm/L PEG-6000, 0.01M Imidazole, 0.01 CaCl2, pH 7.4

A further experiment deals with T2, Factor D (Homo sapiens, UniProt P00746).
T2 construct: prepared from pooled human plasma; from tissue; host or cells: pooled human plasma
T2 sequence (P00746 26-253): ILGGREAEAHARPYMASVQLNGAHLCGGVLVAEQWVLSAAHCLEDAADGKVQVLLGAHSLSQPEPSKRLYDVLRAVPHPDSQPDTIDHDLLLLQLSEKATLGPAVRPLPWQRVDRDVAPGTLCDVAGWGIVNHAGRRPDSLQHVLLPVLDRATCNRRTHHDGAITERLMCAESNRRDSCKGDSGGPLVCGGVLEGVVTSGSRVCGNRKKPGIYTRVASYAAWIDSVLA
The experiment is described as follows: Factor D assay by inhibition of fluid phase Factor B activation. The method, then:
Highly purified C3, C4, Factor D, Factor B, and C1s were prepared from pooled human plasma. Factors B and C4 were radiolabeled by periodate oxidation of sialic acid residues, followed by reduction with tritiated sodium borohydride. In a representative experiment, a solution of 1.2 mg of factor B in 1.8 ml of PBS was treated with 70 μl of 0.1M NaIO4. After 10 min incubation on ice, excess reagent was removed by filtration over "SEPHADEX®" which is a matrix for gel chromatography (1.0 cm×20 cm). To the protein pool was added 60 μl of NaB[^3 H]4 solution and incubated for 30 min on ice. Labeled protein was separated from excess reagent by desalting or dialysis. Human C4 was radiolabeled in the same manner. Radiolabeled proteins were stored at -70° C. in PBS. The specific radioactivity of ^3 H factor B was about 10,000 CPM/μg and that of ^3 H-C4 was 5,000 CPM/μg.
The effect of the peptides on Factor D-dependent cleavage of factor B was studied by incubating 3.5 μg of Factor B, 1.5 μg of C3(H2 O) and 0.2 μl of Factor D at 37° C. for 60 min in Mg-PBS containing different concentrations of inhibitor. Uncleaved Factor B and its fragments, Ba and Bb, were first separated by SDS-PAGE and analyzed as described above. The percent cleavage of the reaction was calculated as follows: [formula]
B=radioactivity (CPM) of uncleaved factor B
Bb=radioactivity (CPM) of fragment Bb
Ba=radioactivity (CPM) of fragment Ba
Electrophoresis was carried out under reducing conditions in the Laemmli system using slab gel of 8% polyacrylamide. The gels were stained and destained (Fairbanks et al. Biochemistry (1971) 10:2606).
The percent inhibition of the reaction was calculated according to the following relationship: [formula]
A: % cleavage without inhibitor
B: % cleavage with inhibitor
The concentration inducing 50% inhibition was obtained by plotting the percent inhibition on a probability graph (National Blank Book Co., No. 12-083) on the ordinate and the log of the inhibitor concentration on the abscissa. From this graph, a 50% inhibition concentration IC50 was obtained and this value was employed to express the activity.

Another experiment addresses Factor Xa (Homo sapiens, UniProt P00742). The experiment is described as follows: Coagulation inhibition assay, Factor Xa (clotting of Factor X deficient plasma). As to conditions: 40 μM peptide. The method, then: Inhibitory activity of subject peptides toward thrombin and Factor Xa were done in the following manner.
Mix 50 μL Factor Xa (0.1 μg/ml) in TBSA with 100 μL Peptide in TBSA and 50 μL CaCl2 25 mM and incubate for 1 minute at 37° C. Add 50 μL Factor X deficient plasma/RBC (10/1) and measure clotting end point (in seconds) in a Fibrometer (BBL)
TBSA=Tris-Saline with Bovine Serum Albumin: 0.1M NaCl,0.05 M Tris-HCl, 1 mg/ml BSA, 0.1% NaN3
Factor X deficient plasma: George King Biomedical (GK 1004) RBC=Rabbit Brain Cephalin: Sigma Chemical Co. St. Louis, Mo.

For the next experiment, the target named is Plasmin (Homo sapiens, UniProt P00747). The experiment is described as follows: Plasmin assay (S2251). The note with it: 200 μM peptide. The procedure: Substrate H-D-Val-Leu-Lys-pNA·HCl (S2251, Kabi), 10 mM in deionized water; may be frozen for future use.
Chain of Plasmin (P00747 581-810 limits assumed): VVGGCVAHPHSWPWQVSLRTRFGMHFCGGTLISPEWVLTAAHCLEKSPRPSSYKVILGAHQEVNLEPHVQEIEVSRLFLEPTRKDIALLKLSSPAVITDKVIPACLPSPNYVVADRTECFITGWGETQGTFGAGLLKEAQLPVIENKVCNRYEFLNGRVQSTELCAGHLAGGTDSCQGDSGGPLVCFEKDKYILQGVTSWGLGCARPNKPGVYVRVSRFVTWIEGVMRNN
Chain of Plasmin (P00747 97-580 partner limits assumed): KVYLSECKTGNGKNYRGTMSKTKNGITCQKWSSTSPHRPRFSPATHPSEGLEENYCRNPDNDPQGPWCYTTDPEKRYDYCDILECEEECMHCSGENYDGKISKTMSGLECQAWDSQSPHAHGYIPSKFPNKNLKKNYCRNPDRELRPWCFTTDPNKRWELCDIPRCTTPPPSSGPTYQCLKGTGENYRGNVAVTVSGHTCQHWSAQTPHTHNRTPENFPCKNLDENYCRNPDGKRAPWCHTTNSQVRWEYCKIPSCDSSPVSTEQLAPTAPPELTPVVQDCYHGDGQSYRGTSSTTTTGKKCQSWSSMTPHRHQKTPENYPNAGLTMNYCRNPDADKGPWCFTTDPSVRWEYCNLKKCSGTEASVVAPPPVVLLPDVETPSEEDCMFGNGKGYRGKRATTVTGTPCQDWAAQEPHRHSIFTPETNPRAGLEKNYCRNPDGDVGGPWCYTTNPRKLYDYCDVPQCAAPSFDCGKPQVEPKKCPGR
Buffer 50 mM Tris·HCl, pH 7.4 containing 0.01% Tween 80
Inhibitor 400 μM in deionized water
Enzyme Plasmin; 0.5 U/ml in buffer (Cat #P-4895, Sigma Chemical Co., St. Louis, Mo.)
Mix 220 μL buffer, 200 μL deionized water (control) or inhibitor solution and 40 μL substrate. Incubate for 2 min at 37° C. Transfer 230 μL to a microcuvette, add 40 μL of enzyme, mix, and measure rate spectrophotometrically at 405 nm for about 5 min. Inhibition (%) is calculated in the same manner as in previous assays.

Setting [1] is: Table X, μM concentration at which protease was inhibited 50%, read-out: IC50 D.
[2] abbreviates: Tables VI and VIII, % 50, read-out: Factor D, μM concentration listed for 50 % inhibition.

Read-outs that look alike come from different tables or passages of the source. Ends that are not written are not given here.

Chain of Factor Xa (P00742 235-488 limits assumed): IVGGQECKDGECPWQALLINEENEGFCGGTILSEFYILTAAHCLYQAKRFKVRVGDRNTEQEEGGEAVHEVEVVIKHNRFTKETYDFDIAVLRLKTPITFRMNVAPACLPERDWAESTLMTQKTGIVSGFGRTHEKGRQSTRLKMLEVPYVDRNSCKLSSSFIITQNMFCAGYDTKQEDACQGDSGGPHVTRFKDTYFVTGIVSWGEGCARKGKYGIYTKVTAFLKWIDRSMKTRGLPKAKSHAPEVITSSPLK
Chain of Factor Xa (P00742 41-179 partner limits assumed): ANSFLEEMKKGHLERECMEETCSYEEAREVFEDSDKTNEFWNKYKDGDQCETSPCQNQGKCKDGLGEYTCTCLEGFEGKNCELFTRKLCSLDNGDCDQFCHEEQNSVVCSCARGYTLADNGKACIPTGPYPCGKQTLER

For the compound `CC[C@H](C)[C@H](NC(=O)[C@H](CC(C)C)NC(=O)[C@H](Cc1ccccc1)NC(=O)[C@@H](NC(=O)[C@H](Cc1ccccc1)NC(=O)[C@@H]1CCCN1C(=O)[C@H](CCCCN)NC(=O)[C@H](CC(N)=O)NC(=O)[C@H](Cc1ccccc1)NC(=O)[C@H](CCCCN)NC(=O)[C@@H](NC(=O)[C@H](CCC(=O)O)NC(=O)[C@@H]1CCCN1C(=O)[C@@H]1CCCN1)C(C)C)C(C)C)C(=O)O` [Peptide 1], testing at 100 µM against Cathepsin G gave an inhibition of 0%. Moreover, the inhibition (usually the relative decrease from the control value, in per cent) at 200 µM on Cathepsin G came to 0%; against Factor D (200 μM peptide), 0%; on Plasmin, 37%. Further, the inhibition at 40 µM at Thrombin amounted to 0%; at Factor Xa, 31%.
“AGRSLNPNRVTFKANRPFLVFIREVPLNTIIFLGRVANP [Peptide 27]” showed an inhibition at 200 µM at Cathepsin G of 52%. Also, the inhibition at 40 µM against Thrombin is 97%. The IC50 on Factor D (setting [1]) is less than 25 µM.
As for IVRFNRPFLLII [Peptide 3], the inhibition at 100 µM against Cathepsin G worked out at 32%. Further, the values for the inhibition at 200 µM against Cathepsin G and against Plasmin were 32% and 33%, respectively. Moreover, the inhibition at 40 µM came out at 50% on Thrombin and 73% against Factor Xa. Further, the IC50 on Factor D (setting [2]) was found to be 111 µM.
In the case of “IVRFNRPFLLIIVPTDTQNIFFLSKVTNPSKPR [Peptide 22]”, at Cathepsin G, the “Cathepsin G % inhibition” value is 46% and the “Cathepsin G Inhibition” value is 46%. This compound had a Thrombin inhibition on Thrombin of 90%. Besides, the IC50 at Factor D (setting [2]) came out at 4 µM. The “Factor Xa % inhibition” value at Factor Xa turned out to be 97%. For the same compound, the Plasmin % inhibition on Plasmin was 56%.
In turn, PNRVTFKANRPFLVFI [Peptide 2] gave an inhibition at 100 µM against Cathepsin G of 13%. Also, the values for the inhibition at 200 µM against Cathepsin G and against Plasmin were 13% and 33%, respectively. For the same compound, on Factor D (setting [2]), the IC50 came out at 53 µM. This compound had an inhibition at 40 µM against Factor Xa of 51%.
As for “RVTFKANRPFLVFIREVPLNTIIFLGRVANP [Peptide 21]”, the inhibition at 100 µM against Cathepsin G was found to be 38%. The results for the inhibition at 200 µM at Cathepsin G and against Plasmin were 38% and 53%, respectively. In addition, the inhibition at 40 µM against Thrombin was found to be 97%; against Factor Xa, 99%. In addition, the IC50 on Factor D (setting [1]) and at Factor D (setting [2]) was less than 8 µM throughout.
In the case of “VKFNKPFVFLLIEQNTKSPLFLGKVVNPTQK [Peptide 20]”, at Cathepsin G, the “Cathepsin G % inhibition” value was determined as 0% and the “Cathepsin G Inhibition” value amounted to 0%. This compound also yielded a Thrombin inhibition on Thrombin of 71%. The IC50 at Factor D (setting [2]) was found to be 16 µM. Further, on Factor Xa, the “Factor Xa % inhibition” value turned out to be 87%. In addition, the Plasmin % inhibition at Plasmin came to 43%.

These data come from patent US5157019A, “Serine protease inhibitors” (Monsanto Company, priority 1991, dated 1992).
